Laboratory results reported in patent US11298330B2, “Magnesium compositions and methods of use” (Neurocentria, Inc., priority 2017, dated 2022).

How the values were obtained:
[1] = tested on: diabetic patients; details: nearly 1 g of magnesium daily for 1 month; cited from earlier work
[2] = tested on: young (9-month old) and aged (25-month old) rats; details: food containing 2% magnesium oxide for 8 days, cited from earlier work
[3] = tested on: diabetic patients; details: 720 mg/day for three months; cited from earlier work
[4] = tested on: cultured rat hippocampal neurons; assay: Probability of transmitter release (Pr) by FM dye uptake; format: cell-based; details: extracellular magnesium concentration from 0.8 mM to 1.2 mM for 4 h
Protocol: An example of the effect of calcium and magnesium on the regulation of Probability of transmitter release (Pr) is shown in FIG. 3. In an experiment, rat hippocampal neurons were cultured in vitro in varying concentrations of extracellular calcium or magnesium, thereby effectively varying concentrations of intracellular calcium or magnesium. A traceable dye was used as a model neurotransmitter to measure the change in Pr. […] Furthermore, at a relatively low intracellular calcium concentration, the inverse relationship between intracellular magnesium concentration and Pr was more apparent, as shown in FIG. 3B. At a low calcium concentration condition, increasing the extracellular magnesium concentration promoted more synapses with a higher intracellular magnesium concentrations and low Pr values. […]
The Probability of transmitter release (Pr) of cultured rat hippocampal neurons was measured by quantification of N-β-Triethylammoniumpropyl)-4-(4-(Dibutylamino) Styryl) Pyridinium Dibromide (FM) dye uptake following a string of 30 single 1 Hertz (Hz) action potentials (Pr1Ap). […] Intracellular magnesium concentration was quantified by the intensity of MgGreen (MgGrn), a fluorescent dye that was proportional to magnesium concentration (Zhou et al., 2015).

Compound | increase of serum magnesium level [1] | metabolic control [1] | side-effect [2] | cognitive function ([2]; gain transient) | blood magnesium levels raised, on average [3] | metabolic control as assessed by HbAlc levels [3] | effect on calcium-Pr relationship [4]
[O]=[Mg] [magnesium oxide] | about 10% | only minor improvement | diarrhea and weight loss | some sign of improvement |  |  | 
[Mg+2] [magnesium] |  |  |  |  | about 10% | no improvement | shifted the calcium-Pr relationship to the right
